Experimental findings from patent US10662210B2, “Compositions and methods comprising osmium for the treatment of cancers” (Massachusetts Institute of Technology, priority 2014, dated 2020) are described below.

Format in all cases: cell-based, human
For assay [1], the system named is A2780 cells. In words: DNA flow cytometric cell cycle analysis. As to the method:
After 24 hours untreated A2780 cells had the following distribution: G1: 73.4%, S: 21.7%, and G2/M: 5.0%. After 48 hours untreated A2780 cells had the following distribution: G1: 75.1%, S: 19.6%, and G2/M: 5.2%. After 72 hours untreated had the following distribution: G1: 73.6%, S: 21.0%, and G2/M: 5.4%. After 24 hours A2780 cells treated with 2 had the following distribution: G1: 61.0%, S: 27.9%, and G2/M: 11.1%. After 48 hours A2780 cells treated with 2: G1: 61.8%, S: 19.0%, and G2/M: 19.1%. After 72 hours A2780 cells treated with 2 had the following distribution: G1: 57.3%, S: 23.3%, and G2/M: 19.4%. This property may be related to upregulation of p53 and phosphorylation of CHK1. Complex 4 induced relatively small perturbations to the cell cycle; changes in phase populations remained <5% even after a 72-hours incubation. After 24 hours untreated A2780 cells had the following distribution: G1: 73.7%, S: 23.1%, and G2/M: 3.3%. After 48 hours untreated A2780 cells had the following distribution: G1: 73.4%, S: 21.7%, and G2/M: 4.9%. After 72 hours untreated A2780 cells had the following distribution: G1: 79.7%, S: 19.4%, and G2/M: 0.9%. After 24 hours A2780 cells treated with 4 had the following distribution: G1: 70.9%, S: 24.8%, and G2/M: 4.6%. After 48 hours A2780 cells treated with 4 had the following distribution: G1: 71.9%, S: 18.3%, and G2/M: 9.8%. After 72 hours A2780 cells treated with 4 had the following distribution: G1: 70.3%, S: 24.4%, and G2/M: 5.3%.
In order to monitor the cell cycle, flow cytometry studies were carried out. A2780 cells were incubated with and without the test compounds for 24-72 h at 37° C. Studies on A549 cells under normal and starved (proliferating and non-proliferating) conditions were also carried out. Cells were harvested from adherent cultures by trypsinization. Following centrifugation at 1000 rpm for 5 min, cells were washed with PBS and then fixed with 70% ethanol in PBS. Fixed cells were collected by centrifugation at 2500 rpm for 3 min, washed with PBS and centrifuged as before. Cellular pellets were re-suspended in 50 μg/ml propidium iodide (Sigma) in PBS for nucleic acids staining and treated with 100 μg/ml RNaseA (Sigma). DNA content was measured on a FACSCalibur-HTS flow cytometer (BD Biosciences) using laser excitation at 488 nm and 20,000 events per sample were acquired. Cell cycle profiles were analysed using the ModFit software. For the apoptosis experiments, the Annexin V-FITC Early Apoptosis Detection Kit was used. The manufacture's protocol was followed to carry out this experiment. Briefly, untreated and treated cells (1×10^5) were suspended in 1× annexin binding buffer (96 μL) (10 mM HEPES, 140 mM NaCl, 2.5 mM CaCl2), pH 7.4), then 1 μL FITC annexin V and 12.5 μL PI (10 μg/mL) were added to each sample and incubated on ice for 15 min. After which more binding buffer (150 μL) was added while gently mixing. The samples were kept on ice prior to being read on the FACSCalibur-HTS flow cytometer (BD Biosciences) and 20,000 events per sample were acquired. Cell populations were analysed using the FlowJo software (Tree Star).

The test system of assay [2] is A2780 cells. In words: Dual Annexin V staining/PI flow cytometry assay. Conditions: 72 hours. Here is the method:
To have a more complete understanding of the cellular response induced by 2 or 4, their mode of cell killing was evaluated. Many clinically approved cancer drugs exert their cytotoxic effects through apoptosis, and so the features related to this pathway were monitored. Apoptotic cells underwent morphological changes that lead to cell membrane disorientation. […] Cells can undergo other forms of cell death such as necrosis and autophagy. To probe these pathways, cytotoxicity assays were carried out in the presence of […], chloroquine, and IM-54, respectively. Because both chloroquine and IM-54 had little effect on the potency of either of the osmium complexes, necrosis and autophagy were ruled out as possible death pathways. […] On the other hand, 4 initiated ER stress, culminating in p53 independent, caspase directed apoptosis (FIG. 4).
In order to monitor the cell cycle, flow cytometry studies were carried out. […] DNA content was measured on a FACSCalibur-HTS flow cytometer (BD Biosciences) using laser excitation at 488 nm and 20,000 events per sample were acquired. Cell cycle profiles were analysed using the ModFit software. […] The samples were kept on ice prior to being read on the FACSCalibur-HTS flow cytometer (BD Biosciences) and 20,000 events per sample were acquired. Cell populations were analysed using the FlowJo software (Tree Star).

Assay [3] deals with phosphorylated H2AX (γH2AX), CHK2, CHK1, p53 (Ser15) in A2780 cells. In words: Immunoblotting analysis, DNA damage pathway. Conditions: 72 hours. Here is the method: To gain further insight into the modes of action of 2 and 4, immunoblotting analyses were conducted to monitor changes in expression of biomarkers related to the DNA damage pathway (FIG. 8). […] This difference could be related to steric effects imposed by the phenyl groups in 4.
(§1) A2780 cells (5×10^5 cells) were incubated with the osmium complexes (concentrations, μM) for 72 h at 37° C. Cells were washed with PBS, scraped into SDS-PAGE loading buffer (64 mM Tris-HCl (pH6.8)/9.6% glycerol/2% SDS/5% β-mercaptoethanol/0.01% Bromophenol Blue), and incubated at 95° C. for 10 min. Whole cell lysates were resolved by 4-20% sodium dodecylsulphate polyacylamide gel electrophoresis (SDS-PAGE; 200 V for 25 min) followed by electro transfer to polyvinylidene difluoride membrane, PVDF (350 mA for 1 h). Membranes were blocked in 5% (w/v) non-fat milk in PBST (PBS/0.1% Tween 20) and incubated with the appropriate primary antibodies (Cell Signalling Technology and Santa Cruz). After incubation with horseradish peroxidase-conjugated secondary antibodies (Cell Signalling Technology), immune complexes were detected with the ECL detection reagent (BioRad) and analyzed using an Alpha Innotech ChemiImager™ 5500 fitted with a chemiluminescence filter.
For orientation: In western blotting, separated proteins are transferred to a membrane and probed.

Assay [4] has as its system p53, p21 and BAX in A2780 cells. In words: Immunoblotting analysis, p53 pathway. The settings on record: for p53 expression: vs untreated cells. As to the method:
Having established the intracellular targets of 2 and 4, the role of p53, a cell cycle and apoptosis regulator, in the cellular responses evoked was investigated. […] Therefore, p53 played a fundamental role in coordinating the cellular response to 2-induced DNA damage. […] (FIG. 13). […] To relate p53 to potency, cytotoxicity studies were conducted in the presence of p53 inhibitors pifithrin-α and pifithrin-μ. (both 10 μM). […] The IC50 values of compound 2 in the absence and presence of p53 inhibitor pifithrin-μ after 72 hours incubation was about 2 μM and about 30 μM, respectively.
as §1

Take `[N]#[Os]1([Cl])([Cl])([Cl])[N]2C=CC(c3ccccc3)=c3ccc4c(c32)[N]1C=CC=4c1ccccc1` [Complex 4, OsN(4,7-diphenyl-1,10-phenanthroline)Cl3]: in the assay with A2780 cells [1] (24 hours), the “cell cycle distribution G1” value amounted to 70.9%, the “cell cycle distribution G2/M” value was found to be 4.6% and the “cell cycle distribution S” value is 24.8%. In the assay on A2780 cells [1] (48 hours), the “cell cycle distribution G1” value is on record as 71.9%, the “cell cycle distribution G2/M” value worked out at 9.8% and the “cell cycle distribution S” value was determined as 18.3%. For the same compound, in the assay on A2780 cells [1] (72 hours), the “cell cycle distribution G1” value was 70.3%, the “cell cycle distribution G2/M” value is given as 5.3% and the “cell cycle distribution S” value stood at 24.4%. Further, in the assay with A2780 cells [1] (up to 72-hours incubation), the “changes in phase populations” value is reported as below 5%. The “occurrence of apoptosis (Annexin V/PI)” value with A2780 cells [2] was “induced large populations of cells to undergo early and late stage apoptosis”. In addition, the “expression of DNA damage pathway biomarkers” value in assay [3] is given as “little signs of DNA damage”. In addition, in assay [4], the “p21 and BAX expression” value was “remained fairly constant”; the p53 expression result was “did not increase markedly”.

On to `[N]#[Os]1([Cl])([Cl])([Cl])[N]2C=CC=c3ccc4c(c32)[N]1C=CC=4` [Complex 2, OsN(1,10-phenanthroline)Cl3], for which, in the assay with A2780 cells [1] (24 hours), the “cell cycle distribution G1” value is recorded as 61.0%, the “cell cycle distribution G2/M” value is listed as 11.1% and the “cell cycle distribution S” value is reported as 27.9%. Besides, in the assay with A2780 cells [1] (48 hours), the “cell cycle distribution G1” value turned out to be 61.8%, the “cell cycle distribution G2/M” value is listed as 19.1% and the “cell cycle distribution S” value was determined as 19.0%. Moreover, the “increase in G2/M population” value in the assay with A2780 cells [1] (72 h incubation) is reported as around 3 fold. In the assay on A2780 cells [1] (72 hours), the “cell cycle distribution G1” value was 57.3%, the “cell cycle distribution G2/M” value came out at 19.4% and the “cell cycle distribution S” value was 23.3%. Moreover, the “occurrence of apoptosis (Annexin V/PI)” value in the assay on A2780 cells [2] is “induced large populations of cells to undergo early and late stage apoptosis”. For the same compound, in assay [3], the “expression of DNA damage pathway biomarkers” value was “marked increase in expression of the phosphorylated forms of H2AX (γH2AX), CHK2, CHK1, and p53 (Ser15)”. Further, in assay [4], the “p21 and BAX expression” value is given as “dose-dependent increase”; the p53 expression entry was “higher p53 expression”.
